# Data reported in article PMC12131194, “Rational design, synthesis, and evaluation of novel polypharmacological compounds targeting NaV1.5, KV1.5, and K2P channels for atrial fibrillation” (The Journal of Biological Chemistry, 2025).
# Molecular target: T1, TREK-1 (Homo sapiens, UniProt O95069)
# T1 construct: expressed in transfected cells; host or cells: Xenopus laevis oocytes injected with cRNA
# T1 sequence (O95069 1-426): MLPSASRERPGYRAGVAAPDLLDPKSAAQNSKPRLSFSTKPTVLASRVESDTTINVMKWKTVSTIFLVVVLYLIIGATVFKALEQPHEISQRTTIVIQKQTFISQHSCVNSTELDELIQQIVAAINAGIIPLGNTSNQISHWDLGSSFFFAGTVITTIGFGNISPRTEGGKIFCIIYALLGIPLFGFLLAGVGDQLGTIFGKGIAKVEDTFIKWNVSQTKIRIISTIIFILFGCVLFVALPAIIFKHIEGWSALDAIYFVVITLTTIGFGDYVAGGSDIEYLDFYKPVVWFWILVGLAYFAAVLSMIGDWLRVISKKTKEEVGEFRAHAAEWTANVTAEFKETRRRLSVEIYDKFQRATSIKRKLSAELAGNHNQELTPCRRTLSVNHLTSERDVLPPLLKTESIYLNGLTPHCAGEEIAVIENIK
# Test: TEVC selectivity in X. laevis oocytes, TREK-1
# Type: cell-based
# Details: mean ± SD, n = 4, read-out: Effect on TREK-1 (inhibition; negative = activating)
# Method: After confirming compound 6f simultaneous blockade of TASK-1, KV1.5, and NaV1.5, other cardiac channels (Kir2.1, TREK-1, TASK-4) were tested for selectivity at 100 μM (Fig. 8).
# To obtain X. laevis oocytes, the frogs were anesthetized with 2 g/L of tricaine methanesulfonate, and the ovarian lobes were mechanically separated with forceps. The oocytes were incubated for 120 min in an OR2 solution containing in mM: NaCl 82.5, KCl 2, MgCl2 1, HEPES 5 (pH 7.5) supplemented with 2 mg/ml of collagenase II (Sigma) to remove residual connective tissue and obtain individual oocytes. […]
# In order to overexpress the channel in the oocyte, each of the channels to be measured was subcloned (complementary DNA (cDNA); human TASK-1 (KCNK3, NM_002246), h KV1.5 (KCNA5, NM_002234), h NaV1.5 (hH1, M77235), TASK-4/TALK-2 (KCNK17, NM_AF358910), TREK-1 (KCNK2, AF004711) and Kir2.1 (KCNJ2, NM_017296) into pSGEM, pBF1 or pSP64 expression vector, and the cDNA was linearized with NheI or MluI. Complementary RNA (cRNA) was synthesized with the mMESSAGE mMACHINE-Kit (Ambion). The quality of the cRNA was tested on an agarose gel by electrophoresis. cRNA was quantified using a UV-Vis spectrophotometer (NanoDrop 2000). […] After this time, the overexpression of each channel was monitored through electrophysiology. […]
structure (smiles),measurement,value
"CCCCN(CCCC)CC(=O)Nc1ccc(OC)cc1OC [Compound 6f, 2-(dibutylamine)-N-(2,4-dimethoxiphenyl)acetamide]",inhibition at 100 µM,-8.71%
